US8796301B2, “Therapeutic or prophylactic agent for dyskinesia” (Toray Industries, Inc., priority 2007, dated 2014)

Experiments:
[1] = tested on: L-DOPA-induced dyskinesia in a rat model of Parkinson's disease; experiment: L-DOPA-induced dyskinesia in a rat model of Parkinson's disease (6-hydroxydopamine lesion), dyskinesia score; type: in vivo
dyskinesia = details: WO00/003715; cited from earlier work

SMILES | effect on L-DOPA-induced dyskinesia (dyskinesia score vs control score) ([1]; 10 μg/kg subcutaneous, simultaneously with L-DOPA 20 mg/kg oral, FIG. 1) | effect on L-DOPA-induced dyskinesia (dyskinesia score vs control score) ([1]; 10 mg/kg subcutaneous, with L-DOPA 20 mg/kg oral, FIG. 2, FIG. 3, FIG. 4) | effect on L-DOPA-induced dyskinesia (dyskinesia score vs control score) ([1]; 30 mg/kg subcutaneous, with L-DOPA 20 mg/kg oral, FIG. 4) | effect on dyskinesia (dyskinesia)
CN(C(=O)/C=C/c1ccoc1)[C@@H]1CC[C@@]2(O)[C@H]3Cc4ccc(O)c5c4[C@@]2(CCN3CC2CC2)[C@H]1O5.Cl [Compound 1, (−)-17-(cyclopropylmethyl)-3,14β-dihydroxy-4,5α-epoxy-6β-[N-methyl-trans-3-(3-furyl)acrylamido]morphinan hydrochloride] | significantly suppressed dyskinesia | – | – | –
COC(=O)/C=C/C(=O)N[C@@H]1CC[C@@]2(O)[C@H]3Cc4ccc(O)c5c4[C@@]2(CCN3CC2CC2)[C@H]1O5 [β-funaltrexamine] | – | did not influence L-DOPA-induced dyskinesia at all | did not influence L-DOPA-induced dyskinesia at all | suppresses dyskinesia
